This passage reports MIC and viability results from ChEMBL document CHEMBL1140645, “Synthesis and in vitro activity of 2-thiazolylhydrazone derivatives compared with the activity of clotrimazole against clinical isolates of Candida spp” (Bioorg Med Chem Lett, 2007).

By MIC is commonly meant the smallest concentration in the dilution series that meets the test's criterion for growth inhibition. Read a high MIC as a less susceptible organism. One may read the viability as a read-out of living cells in per cent, often relative to untreated cells.

≈ marks a conversion by molar mass, not a printed value.

The test system of the first series is Candida albicans. As to the kind of experiment: Antifungal activity against Candida albicans after 24 hrs by broth microdilution method. The format is functional.
Conditions: not given
(In general: In broth dilution the organism is exposed to a series of concentrations in liquid medium.)
For `N#Cc1ccc(-c2csc(NN=C3CCCC3)n2)cc1`, inhibition of growth (MIC) required 2 µg/mL (≈ 7.08 µM).
For the compound `Cc1ccc(-c2csc(NN=C3CCCC3)n2)cc1`, the minimal inhibitory concentration (MIC) stood at 0.25 µg/mL (≈ 0.921 µM).
As for `O=[N+]([O-])c1cccc(-c2csc(NN=C3CCCC3)n2)c1`, 1 µg/mL (≈ 3.31 µM) was the least that counted as inhibitory (MIC).
For the compound `c1ccc(-c2csc(NN=C3CCCCCC3)n2)cc1`, the MIC was found to be 0.5 µg/mL (≈ 1.75 µM).
Compound `CC1CCC/C(=N\Nc2nc(-c3ccc(Cl)cc3)cs2)C1` (configuration not stated) came in with an MIC of 0.5 µg/mL (≈ 1.56 µM).
As for `COc1ccc(-c2csc(NN=C3CCCC3)n2)cc1`, the lowest concentration to inhibit growth (MIC) was 0.5 µg/mL (≈ 1.74 µM).
Compound `CC1CCCC/C1=N\Nc1nc(-c2cccc([N+](=O)[O-])c2)cs1` (configuration not stated) gave an MIC of 0.5 µg/mL (≈ 1.51 µM).
`c1ccc(-c2ccc(-c3csc(NN=C4CCCC4)n3)cc2)cc1` registered a minimal inhibitory concentration (MIC) of 16 µg/mL (≈ 48 µM).

System in another series: not listed separately
As to the kind of experiment: Cytotoxicity against human EAhy926 cells assessed as cell survival fraction at 5 ug/ml after 24 hrs by trypan blue exclusion test. Particulars: ea.hy 926, at 5 µg/mL.
Consider `N#Cc1ccc(-c2csc(NN=C3CCCC3)n2)cc1`, for which the viability at 24 h, 5 ug/ml was found to be 81%.
Turning to `Cc1ccc(-c2csc(NN=C3CCCC3)n2)cc1`, the viability at 24 h, 5 ug/ml was determined as 80%.
As for `c1ccc(-c2csc(NN=C3CCCCCC3)n2)cc1`, the viability at 24 h, 5 ug/ml was determined as 80%.
As for `CC1CCC/C(=N\Nc2nc(-c3ccc(Cl)cc3)cs2)C1` (configuration not stated), the viability at 24 h, 5 ug/ml was 50%.
For `COc1ccc(-c2csc(NN=C3CCCC3)n2)cc1`, the viability at 24 h, 5 ug/ml amounted to 76.6%.
Still for that read-out and setting: the figure for `CC1CCCC/C1=N\Nc1nc(-c2cccc([N+](=O)[O-])c2)cs1` (configuration not stated) is 85.7%.

The next series has as its system Pichia kudriavzevii. Kind of series: Antifungal activity against Candida krusei after 24 hrs by broth microdilution method. The format is functional.
Conditions: not given
The compound `N#Cc1ccc(-c2csc(NN=C3CCCC3)n2)cc1` registered a minimum inhibitory concentration (MIC) of 32 µg/mL (≈ 113 µM).
For the compound `Cc1ccc(-c2csc(NN=C3CCCC3)n2)cc1`, the MIC came to 64 µg/mL (≈ 236 µM).
`O=[N+]([O-])c1cccc(-c2csc(NN=C3CCCC3)n2)c1` had an MIC of more than 128 µg/mL.
Compound `c1ccc(-c2csc(NN=C3CCCCCC3)n2)cc1` gave an MIC of 8 µg/mL (≈ 28 µM).
Regarding `CC1CCC/C(=N\Nc2nc(-c3ccc(Cl)cc3)cs2)C1` (configuration not stated), the MIC turned out to be 4 µg/mL (≈ 12.5 µM).
In the case of `COc1ccc(-c2csc(NN=C3CCCC3)n2)cc1`, the MIC was determined as 32 µg/mL (≈ 111 µM).
With `CC1CCCC/C1=N\Nc1nc(-c2cccc([N+](=O)[O-])c2)cs1` (configuration not stated), the MIC is more than 128 µg/mL.
Regarding `c1ccc(-c2ccc(-c3csc(NN=C4CCCC4)n3)cc2)cc1`, the minimum inhibitory concentration (MIC) was more than 128 µg/mL.

For a further series, the system named is Nakaseomyces glabratus. As to the kind of experiment: Antifungal activity against Candida glabrata after 24 hrs by broth microdilution method. The format is functional.
Conditions: not given
Consider `N#Cc1ccc(-c2csc(NN=C3CCCC3)n2)cc1`, for which the MIC amounted to 0.5 µg/mL (≈ 1.77 µM).
`Cc1ccc(-c2csc(NN=C3CCCC3)n2)cc1` showed a minimal inhibitory concentration (MIC) of 0.5 µg/mL (≈ 1.84 µM).
`O=[N+]([O-])c1cccc(-c2csc(NN=C3CCCC3)n2)c1`: 0.5 µg/mL (≈ 1.65 µM) was the least that counted as inhibitory (MIC).
As to `c1ccc(-c2csc(NN=C3CCCCCC3)n2)cc1`, the MIC is more than 128 µg/mL.
Consider `CC1CCC/C(=N\Nc2nc(-c3ccc(Cl)cc3)cs2)C1` (configuration not stated), for which the minimal inhibitory concentration (MIC) is more than 128 µg/mL.
Regarding `COc1ccc(-c2csc(NN=C3CCCC3)n2)cc1`, the minimal inhibitory concentration (MIC) came to 2 µg/mL (≈ 6.96 µM).
`CC1CCCC/C1=N\Nc1nc(-c2cccc([N+](=O)[O-])c2)cs1` (configuration not stated) came in with an MIC of 16 µg/mL (≈ 48.4 µM). Against the preceding compound, the MIC is about 8-fold higher.
The compound `c1ccc(-c2ccc(-c3csc(NN=C4CCCC4)n3)cc2)cc1` yielded an MIC of more than 128 µg/mL.

System in a further series: not listed separately
As to the kind of experiment: Cytotoxicity against human EAhy926 cells assessed as cell survival fraction at 50 ug/ml after 24 hrs by trypan blue exclusion test. Particulars: ea.hy 926, at 50 µg/mL.
`N#Cc1ccc(-c2csc(NN=C3CCCC3)n2)cc1`: the viability at 24 h, 50 ug/ml was 76%.
Regarding `Cc1ccc(-c2csc(NN=C3CCCC3)n2)cc1`, the viability at 24 h, 50 ug/ml stood at 75%.
With `c1ccc(-c2csc(NN=C3CCCCCC3)n2)cc1`, the viability at 24 h, 50 ug/ml is 54.5%.
In the case of `CC1CCC/C(=N\Nc2nc(-c3ccc(Cl)cc3)cs2)C1` (configuration not stated), the viability at 24 h, 50 ug/ml was 28.6%.
Still for that read-out and setting: then `COc1ccc(-c2csc(NN=C3CCCC3)n2)cc1`, with 66%.
With `CC1CCCC/C1=N\Nc1nc(-c2cccc([N+](=O)[O-])c2)cs1` (configuration not stated), the viability at 24 h, 50 ug/ml was determined as 83.3%.

Another series concerns Candida tropicalis. As to the kind of experiment: Antifungal activity against Candida tropicalis after 24 hrs by broth microdilution method. The format is functional.
Conditions: not given
Compound `N#Cc1ccc(-c2csc(NN=C3CCCC3)n2)cc1` gave a minimum inhibitory concentration (MIC) of 32 µg/mL (≈ 113 µM).
For the compound `Cc1ccc(-c2csc(NN=C3CCCC3)n2)cc1`, the MIC amounted to 4 µg/mL (≈ 14.7 µM).
The same measure, in the same setting: the figure for `O=[N+]([O-])c1cccc(-c2csc(NN=C3CCCC3)n2)c1` is 64 µg/mL (≈ 212 µM); for `c1ccc(-c2csc(NN=C3CCCCCC3)n2)cc1` it is 8 µg/mL (≈ 28 µM).
In the case of `CC1CCC/C(=N\Nc2nc(-c3ccc(Cl)cc3)cs2)C1` (configuration not stated), the lowest concentration to inhibit growth (MIC) was 2 µg/mL (≈ 6.25 µM).
Consider `COc1ccc(-c2csc(NN=C3CCCC3)n2)cc1`, for which the MIC was 64 µg/mL (≈ 223 µM). This MIC is about 32-fold higher than that of the compound before.
Same read-out and setting: the figure for `CC1CCCC/C1=N\Nc1nc(-c2cccc([N+](=O)[O-])c2)cs1` (configuration not stated) is 64 µg/mL (≈ 194 µM); for `c1ccc(-c2ccc(-c3csc(NN=C4CCCC4)n3)cc2)cc1` it is 64 µg/mL (≈ 192 µM).

The test system of a further series is [Candida] sake. As to the kind of experiment: Antifungal activity against Candida sake after 24 hrs by broth microdilution method. Conditions: Fermentozyma sake. It counts as functional.
Compound `N#Cc1ccc(-c2csc(NN=C3CCCC3)n2)cc1` had a minimum inhibitory concentration (MIC) of 32 µg/mL (≈ 113 µM).
The compound `Cc1ccc(-c2csc(NN=C3CCCC3)n2)cc1` gave a minimum inhibitory concentration (MIC) of 16 µg/mL (≈ 59 µM). This MIC is about 2-fold lower than that of the compound before.
Take `O=[N+]([O-])c1cccc(-c2csc(NN=C3CCCC3)n2)c1`: it took 16 µg/mL (≈ 52.9 µM) to inhibit growth (MIC).
Still for that read-out and setting: then `c1ccc(-c2csc(NN=C3CCCCCC3)n2)cc1`, with 16 µg/mL (≈ 56.1 µM); and `CC1CCC/C(=N\Nc2nc(-c3ccc(Cl)cc3)cs2)C1` (configuration not stated), with 2 µg/mL (≈ 6.25 µM); and `COc1ccc(-c2csc(NN=C3CCCC3)n2)cc1`, with 32 µg/mL (≈ 111 µM).
The compound `CC1CCCC/C1=N\Nc1nc(-c2cccc([N+](=O)[O-])c2)cs1` (configuration not stated) returned a minimum inhibitory concentration (MIC) of 16 µg/mL (≈ 48.4 µM).
Take `c1ccc(-c2ccc(-c3csc(NN=C4CCCC4)n3)cc2)cc1`: the minimum inhibitory concentration (MIC) is 32 µg/mL (≈ 96 µM).

The subject of the next series is Candida parapsilosis. As to the kind of experiment: Antifungal activity against Candida parapsilosis after 24 hrs by broth microdilution method. The format is functional. Particulars: Lodderomyces parapsilosis.
`N#Cc1ccc(-c2csc(NN=C3CCCC3)n2)cc1` gave an MIC of 128 µg/mL (≈ 453 µM).
As to `Cc1ccc(-c2csc(NN=C3CCCC3)n2)cc1`, the MIC is 128 µg/mL (≈ 472 µM).
Take `O=[N+]([O-])c1cccc(-c2csc(NN=C3CCCC3)n2)c1`: the MIC is more than 128 µg/mL.
As for `c1ccc(-c2csc(NN=C3CCCCCC3)n2)cc1`, the MIC came to 8 µg/mL (≈ 28 µM).
The compound `CC1CCC/C(=N\Nc2nc(-c3ccc(Cl)cc3)cs2)C1` (configuration not stated) gave a minimal inhibitory concentration (MIC) of 1 µg/mL (≈ 3.13 µM).
Take `COc1ccc(-c2csc(NN=C3CCCC3)n2)cc1`: the MIC was 8 µg/mL (≈ 27.8 µM).
Same read-out and setting: then `CC1CCCC/C1=N\Nc1nc(-c2cccc([N+](=O)[O-])c2)cs1` (configuration not stated), with 8 µg/mL (≈ 24.2 µM); and `c1ccc(-c2ccc(-c3csc(NN=C4CCCC4)n3)cc2)cc1`, with more than 128 µg/mL.

System in the next series: not listed separately
Kind of series: Cytotoxicity against human EAhy926 cells assessed as cell survival fraction at 0.05 ug/ml after 24 hrs by trypan blue exclusion test. Particulars: ea.hy 926, at 0.05 µg/mL.
As for `N#Cc1ccc(-c2csc(NN=C3CCCC3)n2)cc1`, the viability at 24 h, 0.05 ug/ml came to 88.9%.
The same measure, in the same setting: the figure for `Cc1ccc(-c2csc(NN=C3CCCC3)n2)cc1` is 85.4%.
Consider `c1ccc(-c2csc(NN=C3CCCCCC3)n2)cc1`, for which the viability at 24 h, 0.05 ug/ml is 94.7%.
As to `CC1CCC/C(=N\Nc2nc(-c3ccc(Cl)cc3)cs2)C1` (configuration not stated), the viability at 24 h, 0.05 ug/ml stood at 73%.
Regarding `COc1ccc(-c2csc(NN=C3CCCC3)n2)cc1`, the viability at 24 h, 0.05 ug/ml was found to be 85%.
For the compound `CC1CCCC/C1=N\Nc1nc(-c2cccc([N+](=O)[O-])c2)cs1` (configuration not stated), the viability at 24 h, 0.05 ug/ml was 88.8%.

System in the next series: not listed separately
Kind of series: Cytotoxicity against human EAhy926 cells assessed as cell survival fraction at 0.5 ug/ml after 24 hrs by trypan blue exclusion test. Conditions: ea.hy 926, at 0.5 µg/mL.
In the case of `N#Cc1ccc(-c2csc(NN=C3CCCC3)n2)cc1`, the viability at 24 h, 0.5 ug/ml stood at 84.7%.
For the compound `Cc1ccc(-c2csc(NN=C3CCCC3)n2)cc1`, the viability at 24 h, 0.5 ug/ml was 82%.
The same measure, in the same setting: then `c1ccc(-c2csc(NN=C3CCCCCC3)n2)cc1`, with 87.5%; and `CC1CCC/C(=N\Nc2nc(-c3ccc(Cl)cc3)cs2)C1` (configuration not stated), with 70%.
Turning to `COc1ccc(-c2csc(NN=C3CCCC3)n2)cc1`, the viability at 24 h, 0.5 ug/ml is 82.4%.
Regarding `CC1CCCC/C1=N\Nc1nc(-c2cccc([N+](=O)[O-])c2)cs1` (configuration not stated), the viability at 24 h, 0.5 ug/ml amounted to 86%.
